According to patent publication US20230332197A1, “NUCLEOSIDES AND NUCLEOTIDES WITH 3' VINYL BLOCKING GROUP” (Illumina Singapore Pte. Ltd., priority 2022, published 2023):

Tests used:
[1] = system: DNA polymerases Pol 812, Pol 963, Pol 1558, and Pol 1901; assay: Template-dependent incorporation of nucleotide into primer strand by DNA polymerases, gel electrophoresis; assay type: biochemical, 9° N; details: polymerase 0.12 mg/mL, Mg2+ approximately 4 mM, 60° C. for 10 minutes, template with five A overhang
Source text: (§1) In this incorporation experiment, several DNA polymerases were used to test the feasibility of incorporating a 3′vinyl dTTP into a primer strand through template-dependent synthesis. For each test, 3′vinyl dTTP or an unblocked dTTP was exposed to one polymerase in the presence of a template strand having five A nucleotides overhang at the 5′ end, and the complementary primer strand has a fluorescent tag (FAM) at the 5′ end for visualization purposes. The DNA polymerases tested were Pol 812, Pol 963, Pol 1558, and Pol 1901, each at 0.12 mg/mL. The amino acid sequences of these mutants of 9° N polymerases are disclosed, for example, in U.S. Patent Publication Nos. 2020/0131484 A1 and 2020/0181587 A1, both of which are incorporated by reference herein in their entireties. The nucleotides include a 3′vinyl dTTP
(§2) The negative control nucleotide included a vinyl blocking group attached to the nitrogen atom of the T base typically involved in base-pair binding. Thus, it was expected that the negative control nucleotide would not be able to bind with the available adenosine bases of the template strand. The unaltered dTTP, on the other hand, was expected to be incorporated into the primer strand and could therefore act as a control for 5 incorporations.
For each test reaction, Mg^2+ concentration was at approximately 4 mM, while the polymerase of choice was at a concentration of 0.12 mg/mL. […]

[2] = target: T1, commercially available TdT (Bos taurus, UniProt P06526); assay: Template-independent enzymatic synthesis of oligonucleotides with TdT, gel electrophoresis; assay type: biochemical; details: for nucleic acid formed from primer by TdT (extent of nucleotide addition): 5 or 10 minutes at room temperature
T1 construct: purchased
T1 sequence (P06526 whole entry): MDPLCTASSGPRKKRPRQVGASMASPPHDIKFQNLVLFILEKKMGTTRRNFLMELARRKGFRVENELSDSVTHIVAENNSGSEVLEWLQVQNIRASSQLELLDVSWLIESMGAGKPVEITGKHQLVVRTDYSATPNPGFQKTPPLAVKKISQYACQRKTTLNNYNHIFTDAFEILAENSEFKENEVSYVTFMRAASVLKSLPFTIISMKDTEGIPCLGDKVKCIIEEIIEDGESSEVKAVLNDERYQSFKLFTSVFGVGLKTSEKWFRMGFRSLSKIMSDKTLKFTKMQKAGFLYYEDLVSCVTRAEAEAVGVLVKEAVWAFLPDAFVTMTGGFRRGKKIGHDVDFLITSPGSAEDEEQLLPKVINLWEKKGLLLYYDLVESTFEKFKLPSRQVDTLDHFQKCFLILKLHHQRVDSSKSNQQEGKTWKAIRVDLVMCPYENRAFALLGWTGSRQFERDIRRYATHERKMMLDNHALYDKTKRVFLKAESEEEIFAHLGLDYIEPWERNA
Protocol: A preliminary test of template-independent synthesis of oligonucleotides using a commercially available TdT was conducted. A primer strand with a FAM fluorescent tag at the 5′ end (SED ID No. 2) was introduced.
Three different nucleotides were included, depending on the test condition: a 3′ vinyl blocked dTTP (“3VT”), a 3′-vinyl blocked dTTP that is pre-heated at 60° C. for 5 minutes (“HVT”), and an unaltered dTTP with 3′ hydroxy (“dT”). HVT condition was used to test the thermal stability of the nucleotide. Each nucleotide was allowed to react with the template in the presence of the TdT for 5 or 10 minutes at room temperature.
A control was run simultaneously, which included a primer with one added nucleotide. […] Without being bound to a particular theory, it is believed that the 3′ blocking group on the 3VT nucleotide prevented synthesis beyond the addition of one nucleotide.

Pol 812 = assay: Template-dependent incorporation of nucleotide into primer strand by DNA polymerase, gel electrophoresis; assay type: biochemical, 9° N; details: Pol 812 0.12 mg/mL, Mg2+ approximately 4 mM, 60° C. for 10 minutes
Source text: as §1, §2
(§3) For each test reaction, Mg^2+ concentration was at approximately 4 mM, while the polymerase of choice was at a concentration of 0.12 mg/mL. The reactions also had 20 μmol of nucleotide, nucleotide 1 or nucleotide 2 as diagrammed, and 4 μmol of the template strand (SEQ ID No. 1) and 4 μmol of the primer strand (SEQ ID No. 2). The reaction was carried at 60° C. for 10 minutes.
(§4) Lanes 4, 7, 10, and 13 show the nucleic acids formed when nucleotide 1 was available. Lanes 5, 8, 11, and 14 show the nucleic acids formed when nucleotide 2 was available. Lanes 6, 9, 12, and […] show the nucleic acids formed when unaltered dTTP was available.

Pol 1901 = assay: as above; assay type: biochemical, 9° N; details: Pol 1901 0.12 mg/mL, Mg2+ approximately 4 mM, 60° C. for 10 minutes
Source text: as §1, §2, §3, §4

Pol 1558 = assay: as above; assay type: biochemical, 9° N; details: Pol 1558 0.12 mg/mL, Mg2+ approximately 4 mM, 60° C. for 10 minutes
Source text: as §1, §2, §3, §4

[3] = Preliminary deblocking test of 3′ vinyl group with tetrazine reagent, HPLC UV absorption at 280 nm; assay type: physicochemical; details: 50 μM substrate, 5 mM methyltetrazine propylamine HCl, 0 to 60 Secs
Protocol: 50 μM of 3′ vinyl thymidine monophosphate (TMP) was deblocked in the presence of 5 mM of methyltetrazine propylamine HCl.

In the case of `Cc1cn([C@H]2C[C@H](O)[C@@H](COP(=O)(O)OP(=O)(O)OP(=O)(O)O)O2)c(=O)[nH]c1=O` [unaltered dTTP, Deoxythymidine triphosphate, reference compound], the “number of nucleotides incorporated into the primer strand” value [1] is reported as ≤ 5 and the “nucleic acid formed from primer by TdT (extent of nucleotide addition)” value [2] is reported as “much longer nucleic acids”.
In the case of `C=CO[C@H]1C[C@H](n2cc(C)c(=O)[nH]c2=O)O[C@@H]1COP(=O)(O)OP(=O)(O)OP(=O)(O)O` [nucleotide 1], the “capability of incorporating the nucleotide into the primer strand, compared among the four polymerases” value (“capability … compared among the four polymerases” for short) (Pol 812) is reported as “best performance”, the “capability … compared among the four polymerases” value (Pol 1901) is reported as “least capable of the four” and the “capability … compared among the four polymerases” value (Pol 1558) is reported as “best performance”. For the same compound, the “nucleic acid formed from primer by TdT (extent of nucleotide addition)” value [2] was “addition of just one additional nucleotide” and the “nucleic acid formed from primer by TdT after pre-heating of the nucleotide (thermal stability)” value ([2]; nucleotide pre-heated at 60° C. for 5 minutes, reaction 5 or 10 minutes at room temperature) was “addition of just one additional nucleotide”.
With `C=C[C@]1(O)C[C@H](n2cc(C)c(=O)[nH]c2=O)O[C@@H]1COP(=O)(O)O` [3′ vinyl thymidine monophosphate (TMP), 3′ vinyl thymidine monophosphate] the “deblocking of 3′ vinyl group to 3′OH TMP over time” value [3] was “all of the 3′vinyl TMP have been consumed or deblocked”.
